Patent publication US20250262146A1, “PLATFORM NANOPARTICLE TECHNOLOGY FOR SUSTAINED DELIVERY OF HYDROPHOBIC DRUGS” (UNIVERSITY OF MARYLAND, BALTIMORE, priority 2022, published 2025)

What was measured:
[1] = system: 9 human leukemia cell lines; details: 9 human leukemia cell lines in vitro; cited from earlier work
[2] = Water solubility of ART631, alone and loaded into nanogels; assay type: physicochemical; details: drug without nanogel
[3] = system: MOLM14 human acute myeloid cells; experiment: MTT cytotoxicity assay, MOLM14; assay type: cell-based; details: concentration 0.0025 mg/mL
Method: The MOLM14 AML cell line, MV4;11, and THP1 cell lines were cultured and incubated in RPMI 1640 medium with 10% FBS at 37° C. and air containing 5% CO2. When the cells reached about 70% confluency, the cells were split with a density of 40,000 cells per cm^2. Adult Retinal Pigment Epithelial (ARPE-19) cells were grown in Dulbecco's Modified Eagle Medium (DMEM)/F12 (1:1) with 10% FBS and 1% Penicillin-Streptomycin (Pen-Strep). Dental Pulp Stem Cells (DPSCs) were grown in DMEM with glutamine and 10% FBS and 1% Pen-Strep. A Hemolysis assay kit was purchased from Creative Biolabs™.
The cytotoxicity of plain nanogels, plain SDS nanogels and 2, 5, 10 and 15 wt % ART631-loaded NanoART631 were assessed using thiazolyl blue tetrazolium bromide (MTT) and WST1 assays against MOLM14 human acute myeloid cells, MV4;11 cells, THP1 cells, normal adult retinal pigment epithelium-19 (ARPE-19) cells, and dental pulp stem cells (DPSCs). […] Pure ART631, ART838, 5 and 10 wt % NanoART631 IC50 were determined by adding 5e^−6, 5e^−5, 5e^−4, 6.25e^−4, 0.001, 0.0025, 0.005, 0.01, 0.05, 0.1, 0.2, 0.5, 1, 5, 10 mg·mL-1 of the formulation to MOLM14 AML cells. […] Absorbance was read at 570 nm using a BioTek™ cytation 5 microplate reader for all experiments after removing all the wells contents and then dissolving the formazan crystals in 150 μL of DMSO. […]

SMILES | IC50 [1] [nM] | solubility [2] [µg/mL] | MOLM14 cells killed [3] [%]
C=CCO/N=C(/C[C@H]1O[C@@H]2O[C@@]3(C)CC[C@H]4[C@H](C)CC[C@@H]([C@H]1C)[C@@]24OO3)[C@H]1O[C@@H]2O[C@@]3(C)CC[C@H]4[C@H](C)CC[C@@H]([C@H]1C)[C@@]24OO3 [ART631] | < 45 | < 10 | 67
C[C@@H]1CCC2[C@@H](C)[C@@H](CC(COP(=O)(Oc3ccccc3)Oc3ccccc3)C[C@H]3O[C@@H]4O[C@@]5(C)CCC6[C@H](C)CCC([C@H]3C)[C@]64OO5)O[C@@H]3O[C@@]4(C)CCC1[C@@]23OO4 (stereo partly shown) [ART838] | – | – | 64
